# Reference: patent US5248680A, “Zwitterionic compounds and their n-halo derivatives for use in the treatment of clinical conditions” (Bloomfield D.A., priority 1990, dated 1993)
# Read-outs that look alike come from different tables or passages of the source.
# Tests used:
# [1] = test system: peripheral blood neutrophils; assay: Chemiluminescence (reactive oxidant production) of peripheral blood neutrophils stimulated with calcium ionophore; assay type: cell-based; conditions: Homo sapiens, Neutrophil, mean ± S.E.M.; for activity at 10000 µM: 10 mM zwitterionic compound, normal neutrophils, read-out: Chemiluminescence activity of normal neutrophils; for activity at 40000 µM: 40 mM taurine, read-out: Chemiluminesence production by neutrophils
# Source text: Patients were selected with mild to moderate plaque-type psoriasis on the basis of clinical and histological evidence of disease. Normal volunteers were selected from laboratory personnel without personal or family history of inflammatory disease. Disease control groups included: a) patients with eczema, acne and dermatitis herpetiformis; and b) patients with Crohn's disease and ulcerative colitis. Blood samples from each subject were drawn into sodium heparin Vacutainers® (Vacutainer is a Trade Mark). The inflammatory cells (neutrophils) were isolated by dextran sedimentation and FICOLL-PAQUE®(FICOLL-PLAQUE is a Trade Mark) gradient centrifugation. Viability and purity were assessed by fluorescence microscopy, using ethidium bromide and acridine orange staining. […] Chemiluminescence activity of the peripheral blood neutrophils was tested using the method of Bloomfield, F. J. and Young, M. M. (Inflammation, (1982) 6, 257, hereby incorporated by reference), using calcium ionophore (2μ Molar) as stimulant instead of opsonized zymosan. Chemiluminescence is a measure of the production of reactive oxidants by neutrophils in response to an inflammatory stimulus. It was observed that there was significant reduction in chemiluminescence activity by neutrophils in the taurine-treated and HEPES-treated cells compared to control cells in all groups.
# [2] = test system: myeloperoxidase; assay: Myeloperoxidase activity of neutrophils after preincubation with zwitterion; assay type: cell-based, human; conditions: mean ± S.E.M.; for Myeloperoxidase activity of normal neutrophils: 10 mM zwitterionic compound; for Myeloperoxidase activity of neutrophils: 40 mM taurine
# Source text: (§1) Patients were selected with mild to moderate plaque-type psoriasis on the basis of clinical and histological evidence of disease. Normal volunteers were selected from laboratory personnel without personal or family history of inflammatory disease. Disease control groups included: a) patients with eczema, acne and dermatitis herpetiformis; and b) patients with Crohn's disease and ulcerative colitis.
# (§2) Blood samples from each subject were drawn into sodium heparin Vacutainers® (Vacutainer is a Trade Mark). The inflammatory cells (neutrophils) were isolated by dextran sedimentation and FICOLL-PAQUE®(FICOLL-PLAQUE is a Trade Mark) gradient centrifugation. Viability and purity were assessed by fluorescence microscopy, using ethidium bromide and acridine orange staining.
# [3] = test system: leukotriene B4; assay: Degradation of standard leukotriene B4 measured by radioimmunoassay; assay type: biochemical; conditions: data not shown
# Source text: (§3) It was therefore proposed to test the hypothesis that HEPES could inactivate leukotriene B4 by indirect stimulation of MPO leading to increased production of hypochlorous acid from cellular hydrogen peroxide.
# [4] = test system: neutrophils; assay: Degranulation of lysosomal enzymes by neutrophils stimulated with calcium ionophore; assay type: cell-based, human; conditions: result in words; taurine data not shown
# Source text: as §1, §2
# Stimulation of the inflammatory process in neutrophils, not only activates the respiratory burst, but as a consequence, is also associated with release of lysosomal enzymes from the cells in a process called degranulation. Degranulation of lysosomal enzymes was stimulated in neutrophils from each group of subjects, using calcium ionophore as inflammatory stimulant.
# [5] = test system: catalase; assay: Catalase activity of neutrophils after preincubation; assay type: cell-based, human; conditions: neutrophils preincubated with HEPES or taurine; data not shown
# [6] = test system: neutrophils; assay: Hypochlorous acid production by neutrophils; assay type: cell-based; conditions: Homo sapiens, Neutrophil, 40 mM taurine, mean ± S.E.M.
# Source text: as §1, §2
# [7] = test system: neutrophils; assay: Leukotriene B4 in supernatants of stimulated neutrophils; assay type: cell-based, human; conditions: Homo sapiens, Neutrophil, 40 mM taurine, mean ± S.E.M., read-out: Leukotriene B4 production by neutrophils
# Source text: as §1, §2, §3
# For the methodology used in the in vitro studies hereinafter described reference should be made to McLoughlin, D. M. et al. Biochem. Soc. Trans. (1991) 19:73-78 hereby incorporated by reference, except where otherwise stated.
# [8] = test system: monocytes; assay: Leukotriene B4 in stimulated monocytes; assay type: cell-based, human; conditions: preincubation with 10 mM HEPES or 40 mM taurine; data not shown
# Source text: as §3
# [9] = test system: carrageenan induced paw oedema; assay: Carrageenan-induced paw oedema in rats; assay type: in vivo, rat; conditions: for percentage increase in paw volume: 1 h after carrageenan, mean ± S.E.M.; for reduction in paw oedema: versus control
# Protocol: The studies were conducted on inbred Wistar strain albino rats (120-180 g) of either sex. The rats were housed in colony cages at an ambient temperature of 25°±2° C. and fed on standard pellet chow. The rats were anaesthetized using pentobarbitone sodium, their hind paws were marked and the volume measured. […] The control animals were injected with 10 μl of 0.9% saline solution. […] One hour following the carrageenan injection the hind paw volume was measured again. A 5 ml blood sample was taken from each animal into sodium heparin Vacutainers. Chemiluminescence activity was assayed in the PBMC isolated from each animal.
# These studies were also conducted on inbred Wistar strain albino rats (120-180 g) of either sex. The rats were anaesthetized using pentobarbitone sodium prior to marking each hind paw and measuring paw volume. […] The control animals received 0.5 ml of 0.9% NaCl subcutaneously. 30 min after the injections were administered, paw oedema was induced using carrageenan. One hour following carrageenan administration the hind paw volume was measured. A 5 ml blood sample was taken from each animal into sodium heparin Vacutainers and used for chemiluminescence measurement.
# [10] = test system: myeloperoxidase; assay: Binding of zwitterion to myeloperoxidase (preliminary studies)
smiles,measurement,setting,value
"O=S(=O)(O)CCN1CCN(CCS(=O)(=O)O)CC1 [PIPES, piperazine-N,N'bis(2-ethanesulphonic acid]",activity at 10000 µM,[1],4.08 ± 0.97%
same,Myeloperoxidase activity of normal neutrophils,[2],marked effect on MPO activity
same,Myeloperoxidase activity of normal neutrophils,[2]; 10000 µM,199 ± 23.1 percentage activity of control
"O=S(=O)(O)CCNC(CO)(CO)CO [TES, N-N[tris(hydroxymethyl)-methyl]-2-aminoethanesulphonic acid]",activity at 10000 µM,[1],15.6 ± 2.41%
same,Myeloperoxidase activity of normal neutrophils,[2],lesser effect on MPO stimulation
same,Myeloperoxidase activity of normal neutrophils,[2]; 10000 µM,129 ± 20.1 percentage activity of control
"O=S(=O)(O)CCN(CCO)CCO [BES, N,N-bis(2-hydroxyethyl)-2-aminoethanesulphonic acid]",activity at 10000 µM,[1],4.95 ± 0.93%
same,Myeloperoxidase activity of normal neutrophils,[2],lesser effect on MPO stimulation
same,Myeloperoxidase activity of normal neutrophils,[2]; 10000 µM,138 ± 14.1 percentage activity of control
"O=S(=O)(O)CCNC1CCCCC1 [CHES, 2-(cyclohexylamino)ethanesulphonic acid]",activity at 10000 µM,[1],68.4 ± 6.36%
same,Myeloperoxidase activity of normal neutrophils,[2],little effect
same,Myeloperoxidase activity of normal neutrophils,[2]; 10000 µM,120 ± 4.8 percentage activity of control
"O=S(=O)(O)CCCNC1CCCCC1 [CAPS, 3-(cyclohexylamino)propanesulphonic acid]",activity at 10000 µM,[1],87.9 ± 8.87%
same,Myeloperoxidase activity of normal neutrophils,[2],little effect
same,Myeloperoxidase activity of normal neutrophils,[2]; 10000 µM,115 ± 3.6 percentage activity of control
"O=S(=O)(O)CCCN1CCOCC1 [MOPS, 3-(N-morpholino)propanesulphonic]",activity at 10000 µM,[1],7.27 ± 1.53%
same,Myeloperoxidase activity of normal neutrophils,[2],lesser effect on MPO stimulation
same,Myeloperoxidase activity of normal neutrophils,[2]; 10000 µM,134 ± 13.4 percentage activity of control
"OCl [hypochlorous acid, reference compound]",degradation of standard leukotriene B4,[3],cause degradation of standard leukotriene B4
"NC(=O)CN(CC(=O)O)CC(=O)O [ADA, N-(2-acetamido)iminodiacetic acid]",activity at 10000 µM,[1],1.45 ± 0.27%
same,Myeloperoxidase activity of normal neutrophils,[2],214 ± 32.3 percentage activity of control
"NCCS(=O)(=O)O [taurine, 2-aminoethanesulphonic acid]",activity at 40000 µM,[1]; Normal,12.7 ± 1.77%
same,activity at 40000 µM,[1]; Psoriasis,15.5 ± 2.1%
same,activity at 40000 µM,[1]; disease controls (a),20.3 ± 1.85%
same,activity at 40000 µM,[1]; disease controls (b),30.5 ± 8.6%
same,degranulation by preincubated neutrophils compared to control cells,[4],no significant difference in degranulation
same,Myeloperoxidase activity of neutrophils,[2]; Normal,564 ± 38.3 percentage activity of control
same,Myeloperoxidase activity of neutrophils,[2]; Psoriasis,591 ± 61.8 percentage activity of control
same,Myeloperoxidase activity of neutrophils,[2]; disease controls (a),473 ± 33.7 percentage activity of control
same,Myeloperoxidase activity of neutrophils,[2]; disease controls (b),485 ± 49.2 percentage activity of control
same,effect on catalase activity,[5],no effect on catalase activity
same,activity at 40000 µM,[6]; Normal,152 ± 14.1%
same,activity at 40000 µM,[6]; Psoriasis,167 ± 34.7%
same,activity at 40000 µM,[6]; disease controls (a),142 ± 32.1%
same,activity at 40000 µM,[7]; Normal,64.8 ± 8.3%
same,activity at 40000 µM,[7]; Psoriasis,66.5 ± 10.9%
same,activity at 40000 µM,[7]; disease controls (a),73.3 ± 9.95%
same,activity at 40000 µM,[7]; disease controls (b),78 ± 8.6%
same,reduction of leukotriene B4 in monocytes,[8],also demonstrated in monocytes
same,percentage increase in paw volume,[9]; I.C.V. 50 μg taurine,30 ± 4 percentage increase in paw volume
same,percentage increase in paw volume,[9]; I.C.V. 500 μg taurine,21 ± 8 percentage increase in paw volume
same,percentage increase in paw volume,[9]; S.C. 500 μg taurine,27 ± 2 percentage increase in paw volume
same,reduction in paw oedema,[9]; i.c.v. 50 μg taurine,21%
same,reduction in paw oedema,[9]; i.c.v. 500 μg taurine,54%
same,reduction in paw oedema,[9]; s.c. 500 μg taurine,18%
same,binding to the enzyme (MPO),[10],did not bind to the enzyme
"O=S(=O)(O)CCN1CCOCC1 [MES, 2(N-morpholino)ethanesulphonic acid]",activity at 10000 µM,[1],3.15 ± 0.67%
same,Myeloperoxidase activity of normal neutrophils,[2],marked effect on MPO activity
same,Myeloperoxidase activity of normal neutrophils,[2]; 10000 µM,264 ± 15.9 percentage activity of control
O=S(=O)(O)CCNCl [taurine chloramine],degradation of standard leukotriene B4,[3],cause degradation of standard leukotriene B4
"O=S(=O)(O)CCCN1CCN(CCO)CC1 [(H)EPPS, N-2-hydroxyethylpiperazine-N'3-propanesulphonic acid]",activity at 10000 µM,[1],50.9 ± 7.38%
same,Myeloperoxidase activity of normal neutrophils,[2],marked effect on MPO activity
same,Myeloperoxidase activity of normal neutrophils,[2]; 10000 µM,348 ± 15.1 percentage activity of control
"NC(=O)CNCCS(=O)(=O)O [ACES, N-(2-acetamido)-2-aminoethanesulphonic acid]",activity at 10000 µM,[1],12.9 ± 2.75%
same,Myeloperoxidase activity of normal neutrophils,[2],marked effect on MPO activity
same,Myeloperoxidase activity of normal neutrophils,"[2]; listed as ACE, 10000 µM",166 ± 18.2 percentage activity of control
